{"source": "patent US6737383B1", "about": "“Herbicidal oxadiazolidines” (priority 1999, dated 2004)", "key": {"giant foxtail": {"tested_on": "giant foxtail", "assay": "Test B pre/postemergence giant foxtail", "format": "in vivo, Setaria faberii", "how_it_was_run": "(§1)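 Herbicidal effect was estimated by eye on a ten-point control scale after plants spent twelve to sixteen days in a greenhouse following soil or foliar treatment. Foliar sprays targeted plants at one to four leaves; all doses were formulated in a non-phytotoxic solvent with surfactant.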"}, "pigweed": {"tested_on": "pigweed", "assay": "Test B pre/postemergence pigweed", "format": "in vivo, Amaranthus retroflexus", "how_it_was_run": "as §1"}, "sugar beet": {"tested_on": "sugar beet", "assay": "Test B pre/postemergence sugar beet", "format": "in vivo, Beta vulgaris", "how_it_was_run": "as §1"}, "wheat": {"tested_on": "wheat", "assay": "Test B pre/postemergence wheat", "format": "in vivo, Triticum aestivum", "how_it_was_run": "as §1"}, "wild oat": {"tested_on": "wild oat", "assay": "Test B pre/postemergence wild oat", "format": "in vivo, Avena fatua", "how_it_was_run": "as §1"}, "purple nutsedge": {"tested_on": "purple nutsedge", "assay": "Test B pre/postemergence purple nutsedge", "format": "in vivo, Cyperus rotundus", "how_it_was_run": "as §1"}, "rape": {"tested_on": "rape", "assay": "Test B pre/postemergence rape", "format": "in vivo, Brassica napus", "how_it_was_run": "as §1"}, "duck salad": {"tested_on": "duck salad", "assay": "Test B flood test duck salad", "format": "in vivo, Heteranthera limosa", "how_it_was_run": "(§2)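 Each value is a visual injury score relative to controls, with 10 meaning complete control and 0 no effect. Evaluation took place twelve to sixteen days after the 2-leaf-stage plants were treated and kept in the greenhouse.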"}, "surinam grass": {"tested_on": "surinam grass", "assay": "Test B pre/postemergence surinam grass", "format": "in vivo, Brachiaria decumbens", "how_it_was_run": "as §1"}, "bedstraw": {"tested_on": "bedstraw", "assay": "Test B pre/postemergence bedstraw", "format": "in vivo, Galium aparine", "how_it_was_run": "as §1"}, "velvetleaf": {"tested_on": "velvetleaf", "assay": "Test B pre/postemergence velvetleaf", "format": "in vivo, Abutilon theophrasti", "how_it_was_run": "as §1"}, "soybean": {"tested_on": "soybean", "assay": "Test B pre/postemergence soybean", "format": "in vivo, Glycine max", "how_it_was_run": "as §1"}, "corn": {"tested_on": "corn", "assay": "Test B pre/postemergence corn", "format": "in vivo, Zea mays", "how_it_was_run": "as §1"}, "cocklebur": {"tested_on": "cocklebur", "assay": "Test B pre/postemergence cocklebur", "format": "in vivo, Xanthium strumarium", "how_it_was_run": "as §1"}, "smallflower flatsedge": {"tested_on": "smallflower flatsedge", "assay": "Test B flood test smallflower flatsedge", "format": "in vivo, Cyperus difformis", "how_it_was_run": "as §2"}, "[1]": {"conditions": "Postemergence, Rate 62 g/ha, scale 0 to 10, 0 is no effect, 10 is complete control"}, "[2]": {"conditions": "Postemergence, Rate 125 g/ha, scale of 0 to 10 where 0 is no effect and 10 is complete control"}, "[3]": {"conditions": "Postemergence, Rate 250 g/ha, scale of 0 to 10, 0 is no effect, 10 is complete control"}, "[4]": {"conditions": "Postemergence, Rate 500 g/ha, scale of 0 to 10 where 0 is no effect and 10 is complete control"}, "[5]": {"conditions": "Preemergence, Rate 62 g/ha, scale of 0 to 10 where 0 is no effect and 10 is complete control"}, "[6]": {"conditions": "Preemergence, Rate 125 g/ha, scale of 0 to 10 where 0 is no effect and 10 is complete control"}, "[7]": {"conditions": "Preemergence, Rate 250 g/ha, scale 0 to 10 (0 no effect, 10 complete control)"}, "[8]": {"conditions": "Preemergence, Rate 500 g/ha, scale of 0 to 10 where 0 is no effect and 10 is complete control"}, "[9]": {"conditions": "Rate 62 g/ha, flood test species, Pre-emergence, visual evaluation after twelve to sixteen days"}, "[10]": {"conditions": "Rate 125 g/ha, under heading Pre-emergence, flood test species, visual evaluation after twelve to sixteen days"}, "[11]": {"conditions": "Rate 250 g/ha, Pre-emergence (flood test species), scale 0 to 10, 0 is no effect, 10 is complete control"}, "[12]": {"conditions": "Rate 500 g/ha, Pre-emergence section of Table B, 0 to 10 scale (0 no effect, 10 complete control)"}}, "data": [{"smiles": "CCCCCn1c(=O)on(C(=O)N(c2ccc(F)cc2F)C(C)C)c1=O", "note": "[Compound 636]", "values": [{"measurement": "Plant response rating, Giant foxtail", "setting": "giant foxtail; [1]", "value": 2}, {"measurement": "Plant response rating, Giant foxtail", "setting": "giant foxtail; [2]", "value": 7}, {"measurement": "Giant foxtail plant response rating", "setting": "giant foxtail; [3]", "value": 9}, {"measurement": "Plant response rating, Giant foxtail", "setting": "giant foxtail; [4]", "value": 9}, {"measurement": "Giant foxtail plant response rating", "setting": "giant foxtail; [5]", "value": 9}, {"measurement": "Giant foxtail plant response rating", "setting": "giant foxtail; [6]", "value": 10}, {"measurement": "Plant response rating, Giant foxtail", "setting": "giant foxtail; [7]", "value": 10}, {"measurement": "Plant response rating, Giant foxtail", "setting": "giant foxtail; [8]", "value": 10}, {"measurement": "Plant response rating, Redroot pigweed", "setting": "pigweed; [1]", "value": 0}, {"measurement": "Plant response rating, Redroot pigweed", "setting": "pigweed; [2]", "value": 0}, {"measurement": "Redroot pigweed plant response rating", "setting": "pigweed; [3]", "value": 6}, {"measurement": "Redroot pigweed plant response rating", "setting": "pigweed; [5]", "value": 10}, {"measurement": "Redroot pigweed plant response rating", "setting": "pigweed; [6]", "value": 10}, {"measurement": "Plant response rating, Redroot pigweed", "setting": "pigweed; [7]", "value": 10}, {"measurement": "Plant response rating, Redroot pigweed", "setting": "pigweed; [8]", "value": 10}, {"measurement": "Plant response rating, Sugarbeets", "setting": "sugar beet; [1]", "value": 2}, {"measurement": "Plant response rating, Sugarbeets", "setting": "sugar beet; [2]", "value": 2}, {"measurement": "Sugarbeets plant response rating", "setting": "sugar beet; [3]", "value": 5}, {"measurement": "Sugarbeets plant response rating", "setting": "sugar beet; [5]", "value": 0}, {"measurement": "Sugarbeets plant response rating", "setting": "sugar beet; [6]", "value": 0}, {"measurement": "Plant response rating, Sugarbeets", "setting": "sugar beet; [7]", "value": 6}, {"measurement": "Plant response rating, Sugarbeets", "setting": "sugar beet; [8]", "value": 7}, {"measurement": "Plant response rating, Wheat", "setting": "wheat; [1]", "value": 0}, {"measurement": "Plant response rating, Wheat", "setting": "wheat; [2]", "value": 0}, {"measurement": "Wheat plant response rating", "setting": "wheat; [3]", "value": 0}, {"measurement": "Wheat plant response rating", "setting": "wheat; [5]", "value": 0}, {"measurement": "Wheat plant response rating", "setting": "wheat; [6]", "value": 0}, {"measurement": "Plant response rating, Wheat", "setting": "wheat; [7]", "value": 0}, {"measurement": "Plant response rating, Wheat", "setting": "wheat; [8]", "value": 2}, {"measurement": "Plant response rating, Wild oats", "setting": "wild oat; [1]", "value": 0}, {"measurement": "Plant response rating, Wild oats", "setting": "wild oat; [2]", "value": 0}, {"measurement": "Wild oats plant response rating", "setting": "wild oat; [3]", "value": 0}, {"measurement": "Wild oats plant response rating", "setting": "wild oat; [5]", "value": 0}, {"measurement": "Wild oats plant response rating", "setting": "wild oat; [6]", "value": 0}, {"measurement": "Plant response rating, Wild oats", "setting": "wild oat; [7]", "value": 0}, {"measurement": "Plant response rating, Wild oats", "setting": "wild oat; [8]", "value": 5}, {"measurement": "Plant response rating, Nutsedge", "setting": "purple nutsedge; [1]", "value": 0}, {"measurement": "Plant response rating, Nutsedge", "setting": "purple nutsedge; [2]", "value": 0}, {"measurement": "Nutsedge plant response rating", "setting": "purple nutsedge; [3]", "value": 0}, {"measurement": "Plant response rating, Nutsedge", "setting": "purple nutsedge; [4]", "value": 0}, {"measurement": "Nutsedge plant response rating", "setting": "purple nutsedge; [5]", "value": 0}, {"measurement": "Nutsedge plant response rating", "setting": "purple nutsedge; [6]", "value": 0}, {"measurement": "Plant response rating, Nutsedge", "setting": "purple nutsedge; [7]", "value": 0}, {"measurement": "Plant response rating, Nutsedge", "setting": "purple nutsedge; [8]", "value": 10}, {"measurement": "Plant response rating, Rape", "setting": "rape; [1]", "value": 2}, {"measurement": "Plant response rating, Rape", "setting": "rape; [2]", "value": 6}, {"measurement": "Rape plant response rating", "setting": "rape; [3]", "value": 7}, {"measurement": "Plant response rating, Rape", "setting": "rape; [4]", "value": 7}, {"measurement": "Rape plant response rating", "setting": "rape; [5]", "value": 0}, {"measurement": "Rape plant response rating", "setting": "rape; [6]", "value": 2}, {"measurement": "Plant response rating, Rape", "setting": "rape; [7]", "value": 7}, {"measurement": "Plant response rating, Rape", "setting": "rape; [8]", "value": 10}, {"measurement": "Plant response rating, Ducksalad (0 to 10 scale, 0 is no effect, 10 is complete control)", "setting": "duck salad; [9]", "value": 0}, {"measurement": "Ducksalad plant response rating (0 to 10 scale, 0 is no effect, 10 is complete control)", "setting": "duck salad; [10]", "value": 0}, {"measurement": "Ducksalad plant response rating", "setting": "duck salad; [11]", "value": 0}, {"measurement": "Ducksalad plant response rating", "setting": "duck salad; [12]", "value": 0}, {"measurement": "Plant response rating, B. signalgrass", "setting": "surinam grass; [1]", "value": 0}, {"measurement": "Plant response rating, B. signalgrass", "setting": "surinam grass; [2]", "value": 0}, {"measurement": "B. signalgrass plant response rating", "setting": "surinam grass; [3]", "value": 0}, {"measurement": "Plant response rating, B. signalgrass", "setting": "surinam grass; [4]", "value": 3}, {"measurement": "B. signalgrass plant response rating", "setting": "surinam grass; [5]", "value": 3}, {"measurement": "B. signalgrass plant response rating", "setting": "surinam grass; [6]", "value": 9}, {"measurement": "Plant response rating, B. signalgrass", "setting": "surinam grass; [7]", "value": 8}, {"measurement": "Plant response rating, B. signalgrass", "setting": "surinam grass; [8]", "value": 9}, {"measurement": "Plant response rating, Bedstraw", "setting": "bedstraw; [1]", "value": 7}, {"measurement": "Plant response rating, Bedstraw", "setting": "bedstraw; [2]", "value": 7}, {"measurement": "Bedstraw plant response rating", "setting": "bedstraw; [3]", "value": 9}, {"measurement": "Bedstraw plant response rating", "setting": "bedstraw; [6]", "value": 5}, {"measurement": "Plant response rating, Bedstraw", "setting": "bedstraw; [7]", "value": 9}, {"measurement": "Plant response rating, Bedstraw", "setting": "bedstraw; [8]", "value": 9}, {"measurement": "Plant response rating, Velvetleaf", "setting": "velvetleaf; [1]", "value": 3}, {"measurement": "Plant response rating, Velvetleaf", "setting": "velvetleaf; [2]", "value": 3}, {"measurement": "Velvetleaf plant response rating", "setting": "velvetleaf; [3]", "value": 3}, {"measurement": "Velvetleaf plant response rating", "setting": "velvetleaf; [5]", "value": 0}, {"measurement": "Velvetleaf plant response rating", "setting": "velvetleaf; [6]", "value": 0}, {"measurement": "Plant response rating, Velvetleaf", "setting": "velvetleaf; [7]", "value": 2}, {"measurement": "Plant response rating, Velvetleaf", "setting": "velvetleaf; [8]", "value": 4}, {"measurement": "Plant response rating, Soybean", "setting": "soybean; [1]", "value": 2}, {"measurement": "Plant response rating, Soybean", "setting": "soybean; [2]", "value": 2}, {"measurement": "Soybean plant response rating", "setting": "soybean; [3]", "value": 4}, {"measurement": "Soybean plant response rating", "setting": "soybean; [5]", "value": 0}, {"measurement": "Soybean plant response rating", "setting": "soybean; [6]", "value": 0}, {"measurement": "Plant response rating, Soybean", "setting": "soybean; [7]", "value": 0}, {"measurement": "Plant response rating, Soybean", "setting": "soybean; [8]", "value": 4}, {"measurement": "Plant response rating, Corn", "setting": "corn; [1]", "value": 2}, {"measurement": "Plant response rating, Corn", "setting": "corn; [2]", "value": 2}, {"measurement": "Corn plant response rating", "setting": "corn; [3]", "value": 2}, {"measurement": "Plant response rating, Corn", "setting": "corn; [4]", "value": 2}, {"measurement": "Corn plant response rating", "setting": "corn; [6]", "value": 0}, {"measurement": "Plant response rating, Corn", "setting": "corn; [7]", "value": 0}, {"measurement": "Plant response rating, Corn", "setting": "corn; [8]", "value": 3}, {"measurement": "Plant response rating, Cocklebur", "setting": "cocklebur; [1]", "value": 0}, {"measurement": "Plant response rating, Cocklebur", "setting": "cocklebur; [2]", "value": 3}, {"measurement": "Cocklebur plant response rating", "setting": "cocklebur; [3]", "value": 3}, {"measurement": "Plant response rating, Cocklebur", "setting": "cocklebur; [4]", "value": 3}, {"measurement": "Cocklebur plant response rating", "setting": "cocklebur; [5]", "value": 0}, {"measurement": "Cocklebur plant response rating", "setting": "cocklebur; [6]", "value": 0}, {"measurement": "Plant response rating, Cocklebur", "setting": "cocklebur; [7]", "value": 0}, {"measurement": "Plant response rating, Cocklebur", "setting": "cocklebur; [8]", "value": 0}, {"measurement": "Plant response rating, S. Flatsedge (0 to 10 scale, 0 is no effect, 10 is complete control)", "setting": "smallflower flatsedge; [9]", "value": 0}, {"measurement": "S. Flatsedge plant response rating (0 to 10 scale, 0 is no effect, 10 is complete control)", "setting": "smallflower flatsedge; [10]", "value": 0}, {"measurement": "S. Flatsedge plant response rating", "setting": "smallflower flatsedge; [11]", "value": 0}, {"measurement": "S. Flatsedge plant response rating", "setting": "smallflower flatsedge; [12]", "value": 0}]}]}
